# Results reported in patent publication US20200399329A1, “ANTIMICROBIAL PEPTIDES” (priority 2015, published 2020).
# Where a SMILES comes first, the peptide text is derived from it. Bridges are numbered along the chain shown (N, C = ends). Where no end group is shown, it is not given here.
# How the values were obtained:
# E. coli strains = assay type: cell-based
# Method: (§1) In order to determine the MIC values of the peptides, growth and inhibition of various bacteria were monitored after treatment with the peptides of the invention (Table B). E. coli, K. pneumoniae, P. aeruginosa and Salmonella bacteria were cultured at 37° C. and at 5×10^6 CFU/ml in a standard 96-well-plate, in Mueller Hinton broth. […] The growth of the bacteria was continuously monitored via spectrophotometry at a wave-length of 625 nm. As bacterial growth progresses, Optical density at 625 nm (OD625 nm) values increase, and where the bacterial growth is inhibited, OD625 nm values remain constant. The experimental system and parameters described herein were used to determine the MIC values of OMN3, OMN5, OMN8 and OMN9 on various bacteria strains (Table B). Using the standard MHB MIC testing for antibiotic activity
# P. aeruginosa BAA-2795 = assay type: cell-based, Pseudomonas aeruginosa
# Method: as §1
# P. aeruginosa BAA-2110 [1] = assay type: cell-based, Pseudomonas aeruginosa
# Method: (§2) In order to determine the MIC values of the peptides, growth and inhibition of various bacteria were monitored after treatment with the peptides of the invention (Table 6).
# (§3) E. coli bacteria were cultured with or without OMN6 in increasing concentrations of 0.8-200 μM and with or without Fetal Bovine Serum 10% for 17-20 hours. The growth of the bacteria was continuously monitored via spectrophotometry at 600 nm. As bacterial growth progresses, OD600 nm values rise, and where the growth is inhibited OD600 nm values remain constant.
# (§4) The experimental system and parameters described here were used to determine the MIC values of OMN2, OMN6, OMN7 and OMN11 on various bacteria strains (Table 7 and Table 8).
# P. aeruginosa BAA-2110 [2] = assay type: cell-based, Pseudomonas aeruginosa; remark: listed apart in the source
# Method: (§5) In order to determine the Minimal Bactericidal Concentration (MBC) values of the peptides, colony formation of various bacteria strains was monitored and determined after treatment with the peptides of the invention. Multi-Drug Resistant A. baumannii bacteria were cultured with or without OMN6 in increasing concentrations, as is detailed in FIG. 6 and Example 6. Immediately afterwards, samples of each experimental group were diluted to 1×10^4 to 1×10^6 as necessary, and further, the samples were plated on appropriate medium-agar plates. All the plates were incubated at 37° C. for 24-48 hours. Colonies were counted and CFU/ml in the original sample, prior to plating, were calculated and determined. An example of the plates, after incubation, is presented in FIG. 7 where the plate on the left side of the image is the CTRL sample treated with DDW and in the right side of the image increasing concentrations of OMN6 are presented, as specified therein.
# (§6) The experimental system and parameters described here were used to determine the MBC values of OMN2, OMN6, OMN7 and OMN11 on various bacteria strains with and without the supplementation of 10% FBS (Table 6 and Table 8).
# [3] = tested on: E. coli Sens. 25922 QC strain; assay type: cell-based, Escherichia coli
# Method: as §1
# E. coli ESBL BAA-198 = assay type: cell-based, Escherichia coli
# Method: as §1
# E. coli CR BAA-2452 = assay type: cell-based, Escherichia coli
# Method: as §1
# K. pneu NDM1 BAA-2473 = assay type: cell-based, Klebsiella pneumoniae
# Method: as §1
# E. coli Sens. 25922 [4] = assay type: cell-based, Escherichia coli; conditions: Sens. 25922
# Method: as §2, §3, §4
# E. coli Sens. 25922 [5] = assay type: cell-based, Escherichia coli
# Method: as §5, §6
# Proteinase-K = Proteinase-K (Parengyodontium album, UniProt P06873); assay: Proteinase-K (ProtK) proteolysis stability, Coommassie Blue stained gel; assay type: in vitro ADME; conditions: 10 μg protein, 2 hours at 37° C.
# Sequence of Proteinase-K (P06873 106-384, species assumed): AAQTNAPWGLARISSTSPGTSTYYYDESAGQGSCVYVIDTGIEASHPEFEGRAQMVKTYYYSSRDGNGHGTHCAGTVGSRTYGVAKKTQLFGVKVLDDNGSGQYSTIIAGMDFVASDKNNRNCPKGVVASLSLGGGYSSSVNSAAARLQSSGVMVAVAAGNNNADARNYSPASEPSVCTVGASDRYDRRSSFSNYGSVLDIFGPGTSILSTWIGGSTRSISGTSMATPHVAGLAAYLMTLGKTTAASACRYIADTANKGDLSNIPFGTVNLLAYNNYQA
# Method: Proteinase-K (ProtK) was used to assess the stability of OMN6 versus native Cecropin A (CecA) and Bovine Serum Albumin (BSA) (See FIG. 1 A). 10 μg of each protein were incubated with increasing concentrations of between 5-20 ng of ProtK as specified, for 2 hours at 37° C. Samples were boiled at 100° C. for five minutes and separated on 15% acrylamide gel. The gel was then stained with Coommassie Blue and excess dye was removed over-night. […] In lane 2, the CecA band was weaker than the untreated sample band in lane 1. In lane 8, fragments of degraded BSA were detected, evidence of partial degradation.
# The same experimental system as described above was used to assess the stability of OMN2, OMN7 and OMN11 against proteolytic degradation by ProtK (see FIG. 1B).
compound,measurement,setting,value
CC[C@H](C)[C@@H]1NC(=O)[C@H](C)NC(=O)[C@H](C)NC(=O)[C@H](C)NC(=O)[C@H](CCC(N)=O)NC(=O)CNC(=O)[C@H](C(C)C)NC(=O)[C@H]([C@@H](C)O)NC(=O)[C@H](C)NC(=O)[C@H](C(C)C)NC(=O)[C@H](C)NC(=O)[C@@H]2CCCN2C(=O)[C@H](C)NC(=O)[C@H](C)NC(=O)[C@H](CO)NC(=O)[C@H]([C@@H](C)O)NC(=O)[C@H](C(C)C)NC(=O)[C@H](C)NC(=O)[C@H](CC(=O)O)NC(=O)[C@H](CCCNC(=N)N)NC(=O)[C@H](C(C)C)NC(=O)[C@H](CCCNC(=N)N)NC(=O)[C@H](CCC(N)=O)NC(=O)CNC(=O)[C@H](C)NC(=O)[C@H](CCCNC(=N)N)NC(=O)[C@H](CCC(=O)O)NC(=O)[C@H](CC(C)C)NC(=O)[C@H](CCC(=O)O)NC(=O)[C@H](CCCCN)NC(=O)[C@H](Cc2ccccc2)NC(=O)[C@@H]2CCCN2C(=O)[C@H](CC(N)=O)NC(=O)[C@H](Cc2c[nH]c3ccccc23)NC(=O)[C@@H](NC(=O)[C@@H](N)CCSC)CSSC[C@@H](C(=O)O)NC(=O)[C@H](CCCNC(=N)N)NC(=O)[C@H](C)NC1=O [OMN3] (H-MCWNPFKELERAGQRVRDAVTSAAPAVATVGQAAAIARC-OH; disulfide 2-39; N-terminus and C-terminus assumed),MIC for E. coli strains,E. coli strains,above 256 μg/mL
same,MIC,P. aeruginosa BAA-2795,256 µg/mL
CC[C@H](C)[C@@H]1NC(=O)[C@H](C)NC(=O)[C@H](CC(=O)O)NC(=O)[C@H](CCCNC(=N)N)NC(=O)[C@H](C(C)C)NC(=O)[C@H](CCCNC(=N)N)NC(=O)[C@H](CCC(N)=O)NC(=O)CNC(=O)[C@H](C)NC(=O)[C@H](CCCNC(=N)N)NC(=O)[C@H](CCC(=O)O)NC(=O)[C@H](CC(C)C)NC(=O)[C@H](CCC(=O)O)NC(=O)[C@H](CCCCN)NC(=O)[C@H](Cc2ccccc2)NC(=O)[C@@H]2CCCN2C(=O)[C@H](CC(N)=O)NC(=O)[C@H](Cc2c[nH]c3ccccc23)NC(=O)[C@@H](NC(=O)[C@@H](N)CCSC)CSSC[C@@H](C(=O)O)NC(=O)[C@H](CCCCN)NC(=O)[C@H](C)NC(=O)[C@H](CC(C)C)NC(=O)[C@H](C)NC(=O)[C@H]([C@@H](C)O)NC(=O)[C@H](C)NC(=O)[C@H](CCC(N)=O)NC(=O)[C@H](C)NC(=O)[C@H](C(C)C)NC(=O)[C@H]([C@@H](C)O)NC(=O)[C@H](C)NC(=O)[C@H](C(C)C)NC(=O)[C@H](C)NC(=O)[C@@H]2CCCN2C(=O)CNC(=O)[C@H](C)NC(=O)[C@H](CO)NC(=O)[C@H]([C@@H](C)CC)NC1=O [OMN5] (H-MCWNPFKELERAGQRVRDAIISAGPAVATVAQATALAKC-OH; disulfide 2-39; N-terminus and C-terminus assumed),MIC for E. coli strains,E. coli strains,above 256 μg/mL
same,MIC,P. aeruginosa BAA-2795,256 µg/mL
CC[C@H](C)[C@H](NC(=O)CNC(=O)[C@H](CC(=O)O)NC(=O)[C@H](CCCNC(=N)N)NC(=O)[C@@H](NC(=O)[C@H](CC(N)=O)NC(=O)[C@H](CCC(N)=O)NC(=O)CNC(=O)[C@@H](NC(=O)[C@H](CCCCN)NC(=O)[C@H](CCC(=O)O)NC(=O)[C@@H](NC(=O)[C@H](CCCCN)NC(=O)[C@H](CCCCN)NC(=O)[C@H](Cc1ccccc1)NC(=O)[C@@H](NC(=O)[C@H](CCCCN)NC(=O)[C@H](Cc1c[nH]c2ccccc12)NC(=O)[C@H](CCCNC(=N)N)NC(=O)[C@H](CS)NC(=O)[C@@H](N)CCSC)[C@@H](C)CC)[C@@H](C)CC)C(C)C)[C@@H](C)CC)C(=O)N[C@H](C(=O)N[C@@H](CCCCN)C(=O)N[C@@H](C)C(=O)NCC(=O)N1CCC[C@H]1C(=O)N[C@@H](C)C(=O)N[C@H](C(=O)N[C@@H](C)C(=O)N[C@H](C(=O)N[C@H](C(=O)NCC(=O)N[C@@H](CCC(N)=O)C(=O)N[C@@H](C)C(=O)N[C@@H](C)C(=O)N[C@H](C(=O)N[C@H](C(=O)N[C@@H](CS)C(N)=O)[C@@H](C)CC)[C@@H](C)O)C(C)C)C(C)C)C(C)C)C(C)C [OMN7] (H-MCRWKIFKKIEKVGQNIRDGIVKAGPAVAVVGQAATIC-NH2; N-terminus and C-terminus assumed),MIC,P. aeruginosa BAA-2110 [1],50 µM
same,MBC,P. aeruginosa BAA-2110 [2],50 µM
CC[C@H](C)[C@@H]1NC(=O)CNC(=O)[C@H](CC(=O)O)NC(=O)[C@H](CCCNC(=N)N)NC(=O)[C@H]([C@@H](C)CC)NC(=O)[C@H](CC(N)=O)NC(=O)[C@H](CCCNC(=N)N)NC(=O)CNC(=O)[C@H](CCSC)NC(=O)[C@H](CCCCN)NC(=O)[C@H](CCC(=O)O)NC(=O)[C@H]([C@@H](C)CC)NC(=O)[C@H](CCCCN)NC(=O)[C@H](CCCCN)NC(=O)[C@H](Cc2ccccc2)NC(=O)[C@H]([C@@H](C)CC)NC(=O)[C@H](CCCCN)NC(=O)[C@H](Cc2c[nH]c3ccccc23)NC(=O)[C@H](CCCNC(=N)N)NC(=O)[C@@H](NC(=O)[C@@H](N)CCSC)CSSC[C@@H](C(=O)O)NC(=O)[C@H]([C@@H](C)CC)NC(=O)[C@H](C)NC(=O)[C@H](CCCCN)NC(=O)[C@H](C)NC(=O)[C@H](CO)NC(=O)CNC(=O)[C@H](CC(C)C)NC(=O)[C@H](C(C)C)NC(=O)[C@H](CCC(=O)O)NC(=O)[C@H]([C@@H](C)CC)NC(=O)[C@H](C)NC(=O)[C@@H]2CCCN2C(=O)CNC(=O)[C@H](C)NC(=O)[C@H](C)NC(=O)[C@H](C(C)C)NC1=O [OMN8] (H-MCRWKIFKKIEKMGRNIRDGIVAAGPAIEVLGSAKAIC-OH; disulfide 2-38; N-terminus and C-terminus assumed),MIC for E. coli strains,E. coli strains,16 to 32 µg/mL
same,MIC,[3],32 µg/mL
same,MIC,E. coli ESBL BAA-198,16 µg/mL
same,MIC,E. coli CR BAA-2452,32 µg/mL
same,MIC,K. pneu NDM1 BAA-2473,64 µg/mL
CC[C@H](C)[C@H](NC(=O)CNC(=O)[C@H](CCC(=O)O)NC(=O)[C@H](CO)NC(=O)[C@@H](NC(=O)[C@H](CCCNC(=N)N)NC(=O)[C@H](CCCCN)NC(=O)[C@H](CCCCN)NC(=O)[C@H](C)NC(=O)[C@H](CO)NC(=O)[C@H](CC(N)=O)NC(=O)[C@H](CCC(=O)O)NC(=O)[C@H](CC(C)C)NC(=O)[C@H](CCCCN)NC(=O)[C@H](CCCCN)NC(=O)[C@H](C)NC(=O)[C@@H](NC(=O)[C@H](CCCCN)NC(=O)[C@H](CO)NC(=O)[C@H](CC(C)C)NC(=O)[C@H](Cc1c[nH]c2ccccc12)NC(=O)[C@H](CO)NC(=O)[C@H](CS)NC(=O)[C@@H](N)CCSC)[C@@H](C)O)[C@@H](C)CC)C(=O)N[C@@H](C)C(=O)N[C@H](C(=O)N[C@@H](C)C(=O)N[C@H](C(=O)N[C@@H](CCC(N)=O)C(=O)NCC(=O)NCC(=O)N1CCC[C@H]1C(=O)N[C@@H](CCCNC(=N)N)C(=O)N[C@@H](CS)C(N)=O)[C@@H](C)CC)[C@@H](C)CC [OMN11] (H-MCSWLSKTAKKLENSAKKRISEGIAIAIQGGPRC-NH2; N-terminus and C-terminus assumed),MIC,P. aeruginosa BAA-2110 [1],40 µM
same,MIC,E. coli Sens. 25922 [4],25 µM
same,MBC,P. aeruginosa BAA-2110 [2],40 µM
same,MBC,E. coli Sens. 25922 [5],25 µM
"Bovine Serum Albumin [BSA, reference compound]",Degradation by ProtK (gel band),Proteinase-K; 5 ng ProtK,partially degrade
same,Degradation by ProtK (gel band),Proteinase-K; 20 ng ProtK,completely degrade
"KWKLFKKIEKVGQNIRDGIIKAGPAVAVVGQATQIAK-NH2 (C-terminus assumed) [CecA, reference compound]",Degradation by ProtK (gel band),Proteinase-K; 5 ng ProtK,partially degrade
same,Degradation by ProtK (gel band),Proteinase-K; 20 ng ProtK,completely degrade
